# Data taken from patent US20200017496A1 (priority 2017, published 2020).
# Tests used:
# Assay in all cases: MIC of compounds alone and combined with antibacterials, broth microdilution (CLSI)
# Type in all cases: cell-based
# [1] = system: Citrobacter koseri (CKR) isolates; conditions: alone
# Outline: (§1)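 Log-phase isolates at final 5·10^5 CFU/mL in cation-adjusted Mueller-Hinton broth, incubated 16-20 h at 35° C in ambient air. MIC read visually as lowest concentration preventing growth, for compound alone and for antibacterial at each compound concentration.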
# [2] = system: Enterobacter aerogenes (EAE) isolates; conditions: alone
# Outline: as §1
# [3] = system: Escherichia coli (ECO) isolates; conditions: alone
# Outline: as §1
# [4] = system: Morganella morganii (MMO) isolates; conditions: alone
# Outline: as §1
# [5] = system: Providencia rettgeri (PRE) isolates
# Outline: as §1
# [6] = system: Providencia stuartii (PST) isolates; conditions: alone
# Outline: as §1
# [7] = system: Serratia marcescens (SMA) isolates
# Outline: as §1
smiles,measurement,setting,value
NC(=O)[C@@H]1CC[C@@H]2CN1C(=O)N2OC(F)(F)C(=O)[O-].[Na+] [EA1],MIC,[1]; CKO ROU,16 µg/mL
same,MIC,[1]; CKO UFR149,16 µg/mL
same,MIC,[1]; CKO UFR150,>32 µg/mL
same,MIC,[2]; EAE 49469,>32 µg/mL
same,MIC,[2]; EAE 200261,>32 µg/mL
same,MIC,[2]; EAE UFR199,128 µg/mL
same,MIC,[2]; EAE UFR201,>32 µg/mL
same,MIC,[2]; EAE UFR202,>32 µg/mL
same,MIC,[2]; EAE UFR213,>32 µg/mL
same,MIC,[3]; ECO 4133,16 µg/mL
same,MIC,[3]; ECO 5302,16 µg/mL
same,MIC,[3]; ECO 131119,32 µg/mL
same,MIC,[3]; ECO 180070,>32 µg/mL
same,MIC,[3]; ECO 190314,>32 µg/mL
same,MIC,[3]; ECO 190317,16 µg/mL
same,MIC,[3]; ECO 190457,16 µg/mL
same,MIC,[3]; ECO 190549,16 µg/mL
same,MIC,[3]; ECO 200159,32 µg/mL
same,MIC,[3]; ECO 200259,16 µg/mL
same,MIC,[3]; ECO 200344,>32 µg/mL
same,MIC,[3]; ECO 260096,16 µg/mL
same,MIC,[3]; ECO 260304,32 µg/mL
same,MIC,[3]; ECO 260508,16 µg/mL
same,MIC,[3]; ECO RGN238,>32 µg/mL
same,MIC,[3]; ECO UFR15,32 µg/mL
same,MIC,[3]; ECO UFR16,16 µg/mL
same,MIC,[3]; ECO UFR17,16 µg/mL
same,MIC,[3]; ECO UFR18,16 µg/mL
same,MIC,[3]; ECO UFR19,16 µg/mL
same,MIC,[3]; ECO UFR20,64 µg/mL
same,MIC,[3]; ECO UFR61O,32 µg/mL
same,MIC,[3]; ECO UFR62,16 µg/mL
same,MIC,[3]; ECO UFR74,>32 µg/mL
same,MIC,[3]; ECO UFR86,16 µg/mL
same,MIC,[3]; ECO UFR174,8 µg/mL
same,MIC,[3]; ECO UFR175,32 µg/mL
same,MIC,[3]; ECO UFR176,32 µg/mL
same,MIC,[3]; ECO UFR184,8 µg/mL
same,MIC,[3]; ECO UFR185,16 µg/mL
same,MIC,[3]; ECO UFR186,>32 µg/mL
same,MIC,[3]; ECO UFR187,>32 µg/mL
same,MIC,[3]; ECO UFR189,16 µg/mL
same,MIC,[3]; ECO UFR190,16 µg/mL
same,MIC,[3]; ECO UFR191,32 µg/mL
same,MIC,[3]; ECO UFR207,32 µg/mL
same,MIC,[3]; ECO UFR208,>32 µg/mL
same,MIC,[3]; ECO UFR209,16 µg/mL
same,MIC,[3]; ECO UFR210,16 µg/mL
same,MIC,[3]; ECO UFR211,>32 µg/mL
same,MIC,[3]; ECO UFR212,16 µg/mL
same,MIC,[3]; ECO UFR218,16 µg/mL
same,MIC,[4]; MMO 200321,>32 µg/mL
same,MIC,[4]; MMO UFR144,>32 µg/mL
same,MIC,[4]; MMO UFR240,>32 µg/mL
same,MIC,[4]; MMO UFR241,>32 µg/mL
same,MIC,[4]; MMO UFR242,128 µg/mL
same,MIC,[4]; MMO UFR243,>32 µg/mL
same,MIC,[4]; MMO UFR244,>32 µg/mL
same,MIC,[4]; MMO UFR245,>32 µg/mL
same,MIC,[4]; MMO UFR246,>32 µg/mL
same,MIC,[4]; MMO UFR247,64 µg/mL
same,MIC,"[5]; PRE UFR99, alone",32 µg/mL
same,MIC,"[5]; strain PRE UFR236, compound alone",>32 µg/mL
same,MIC,[6]; PST UFR94,>32 µg/mL
same,MIC,[6]; PST UFR95,>32 µg/mL
same,MIC,[6]; PST UFR235,16 µg/mL
same,MIC,"[7]; SMA UFR30, alone",>32 µg/mL
same,MIC,"[7]; SMA UFR134, alone",>32 µg/mL
same,MIC,"[7]; SMA UFR135, alone",>32 µg/mL
same,MIC,"[7]; SMA UFR136, alone",>32 µg/mL
same,MIC,"[7]; SMA UFR137, alone",>32 µg/mL
same,MIC,"[7]; SMA UFR138, alone",>32 µg/mL
same,MIC,"[7]; SMA UFR139, alone",>32 µg/mL
same,MIC,"[7]; SMA UFR141, alone",>32 µg/mL
same,MIC,"[7]; SMA UFR142, alone",>32 µg/mL
same,MIC,"[7]; SMA UFR143, alone",64 µg/mL
same,MIC,"[7]; SMA UFR239, alone",>32 µg/mL
same,MIC,"[7]; strain SMA UFR238, compound alone",>32 µg/mL
